The values below come from patent publication US10278942B2 (PELOTON THERAPEUTICS, INC., priority 2015, dated 2019).

SMILES strings stand for the structures. Some results are limits rather than exact numbers.

T1 sequence (Q99814 240-350 limits assumed): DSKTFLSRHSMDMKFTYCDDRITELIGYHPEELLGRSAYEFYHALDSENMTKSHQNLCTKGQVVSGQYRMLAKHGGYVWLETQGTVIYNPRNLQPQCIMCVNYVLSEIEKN

The first experiment addresses T1, HIF-2α HIS TAG-PASB Domain (Homo sapiens, UniProt Q99814).
T1 construct: 100 nM HIF-2α HIS TAG-PASB Domain
The experiment is described as follows: HIF-2α Scintillation Proximity Assay (SPA). The settings on record: Scintillation Proximity Assay IC50 (nM). It is filed as binding. The method, boiled down: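 IC50 values rest on percent inhibition, where the sample signal is scaled between high and low controls. Wells contain about 100 μL: compound dispensed as 2 μL of DMSO solution, 88 μL protein-probe mix and 10 μL of beads.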
Background: In a scintillation proximity assay essentially only radioactivity close to the scintillant gives light.
In turn, `O=S(=O)(c1ccc(Oc2cc(F)cc(Cl)c2)c(Cl)c1)C(F)(F)F` [Compound 128] registered an IC50 of 50 to 249 nM.
Consider `Cc1c(Oc2cc(F)cc(Cl)c2)ccc2c1C(O)C(F)(F)S2(=O)=O` (stereo not shown) [Compound 359], for which the IC50 was less than 50 nM.
As for `O=S1(=O)c2ccc(Oc3cncc(Cl)c3)c(C(F)F)c2C(O)C1(F)F` (stereo not shown) [Compound 381], the IC50 was in the range of 50 to 249 nM.
Compound `COC(=O)c1cc(S(=O)(=O)C(F)(F)F)ccc1Oc1cc(F)cc(Cl)c1` [Compound 121] came in with an IC50 of more than 1000 nM.
Same read-out and setting: the figure for `O=S(=O)(c1ccc(Oc2cc(F)cc(Cl)c2)c(CO)c1)C(F)(F)F` [Compound 122] is more than 1000 nM; for `N#Cc1cncc(Oc2ccc3c(c2C(F)F)C(O)C(F)(F)S3(=O)=O)c1` (stereo not shown) [Compound 383] it is 50 to 249 nM.
Still for that read-out and setting: with `NC(=O)c1cc(S(=O)(=O)C(F)(F)F)ccc1Oc1cc(F)cc(Cl)c1` [Compound 125] the figure was more than 1000 nM.

Staying with this experiment, now noted: read-out: Scintillation Proximity Assay IC50.
With `O=S(=O)(c1ccc(OC2CCC(O)CC2)c2c1C(O)CC2)C(F)(F)F` (stereo not shown) [Compound 615], the 50% inhibitory concentration (IC50) is more than 1000 nM.
Still for that read-out and setting: the figure for `NC(=O)COc1ccc(S(=O)(=O)C(F)(F)F)c2c1CC(F)(F)C2O` (stereo not shown) [Compound 640] is more than 1000 nM.
Same read-out and setting: the figure for `CS(=O)(=O)c1ccc(Nc2ccc(F)cc2)c2c1C(O)CC2` (stereo not shown) [Compound 497] is more than 1000 nM; for `O=S(=O)(c1ccc(Oc2cc(F)cc(Cl)c2)c(CCO)c1)C(F)(F)F` [Compound 127] it is more than 1000 nM.
The same measure, in the same setting: with `N=S1(=O)c2ccc(Oc3cc(F)cc(F)c3)c(C(F)F)c2C(O)C1(F)F` (stereo not shown) [Compound 399] the figure was 50 to 249 nM.
Consider `O=S(=O)(c1ccc(Oc2cc(F)cc(F)c2)c2c1C(CO)CC2)C(F)F` (stereo not shown) [Compound 24], for which the IC50 lay in the range of 250 to 1000 nM.
As for `C=C1CC(O)c2c(S(C)(=O)=O)ccc(Oc3cc(F)cc(Cl)c3)c21` (stereo not shown) [Compound 280], the IC50 is more than 1000 nM.
Same read-out and setting: the figure for `CS(=O)(=O)c1ccc(O[C@H]2C[C@@H](C(N)=O)C2)c2c1[C@H](O)C(F)(F)[C@@H]2F` [Compound 763] is more than 1000 nM.
Same read-out and setting: the figure for `CS(=O)(=NC#N)c1ccc(Oc2cncc(C#N)c2)c2c1[C@@H](O)C(F)(F)[C@@H]2F` (stereo partly shown) [Compound 320] is more than 1000 nM.
Still for that read-out and setting: with `O=S(=O)(c1ccc(Oc2cccn3ccnc23)c2c1C(O)C(F)(F)C2)C(F)(F)F` (stereo not shown) [Compound 246] the figure was more than 1000 nM; with `N#Cc1cc(Oc2ccc(S(=O)(=O)C(F)F)c3c2CC(F)(F)C3=O)ccc1F` [Compound 199], more than 1000 nM.
`O=S(=O)(c1ccc(Oc2ccc(Cl)c(Cl)c2)c(Br)c1)C(F)(F)F` [Compound 169]: the IC50 is more than 1000 nM.
Same read-out and setting: the figure for `Cn1cc(-c2ccc(S(=O)(=O)C(F)(F)F)c3c2CC(F)(F)[C@H]3O)cn1` [Compound 566] is more than 1000 nM.
In the case of `Nc1ccc(Cl)cc1-c1ccc(S(=O)(=O)C(F)(F)F)c2c1CC(F)(F)[C@H]2O` [Compound 540], the IC50 was more than 1000 nM.
On the same count and under the same terms, with `O=S(=O)(c1ccc(Oc2cc(Cl)ccc2F)c(Br)c1)C(F)(F)F` [Compound 170] the figure was more than 1000 nM.
The same measure, in the same setting: with `N#Cc1cc(F)cc(Oc2ccc(Br)c3c2C(F)(F)C(F)(F)C3)c1` [Compound 248] the figure was more than 1000 nM.
Still for that read-out and setting: the figure for `CS(=O)(=O)c1ccc(Oc2cncc(Br)c2)c2c1[C@H](O)[C@H](F)[C@@H]2F` [Compound 328] is less than 50 nM; for `CCS(=O)(=O)c1ccc(Oc2cc(F)cc(C#N)c2)c2c1C(O)CC2` (stereo not shown) [Compound 205] it is more than 1000 nM.
As for `COc1ccc(-c2cn[nH]c2)c2c1CC(F)(F)C2O` (stereo not shown) [Compound 680], the IC50 is more than 1000 nM.
Same read-out and setting: with `O/N=C1\CCc2c(OCC(F)F)ccc(C(F)(F)F)c21` [Compound 698] the figure was more than 1000 nM; with `COc1ccc(S(C)(=O)=O)c2c1CCC2O` (stereo not shown) [Compound 776], more than 1000 nM.
On the same count and under the same terms, the figure for `CO[C@H]1c2c(S(C)(=O)=O)ccc(Oc3cc(F)cc(C#N)c3)c2CC1(F)F` [Compound 210] is more than 1000 nM.
Consider `N#Cc1cc(F)cc(Oc2ccc3c(c2Br)[C@@H](O)CS3(=O)=O)c1` [Compound 415], for which the IC50 was more than 1000 nM.
Still for that read-out and setting: with `N#Cc1cc(F)cc(Oc2ccc(S(N)(=O)=O)c3c2[C@@H](O)C(F)(F)[C@H]3O)c1` [Compound 337] the figure was more than 1000 nM; with `O=C1c2c(ccc(Oc3cc(F)cc(Cl)c3)c2Br)S(=O)(=O)C12CC2` [Compound 404], more than 1000 nM; with `CCOc1ccc2c(c1C(F)F)[C@@H](O)C(F)(F)S2(=O)=O` [Compound 438], more than 1000 nM.
On the same count and under the same terms, with `CS(=O)(=O)c1ccc(C(F)(F)CO)c2c1[C@H](O)C(F)(F)C2` [Compound 556] the figure was more than 1000 nM; with `N#Cc1cc(F)cc(Oc2ccc3c(c2C#CCF)C(O)C(F)(F)S3(=O)=O)c1` (stereo not shown) [Compound 410], more than 1000 nM.
Consider `N#Cc1c(Oc2cc(F)cc(Cl)c2)ccc(S(=O)(=O)C(F)(F)F)c1C(=O)O` [Compound 105], for which the IC50 is more than 1000 nM.
On the same count and under the same terms, the figure for `C=CC1(O)c2c(ccc(Oc3cc(F)cc(C#N)c3)c2C#N)S(=O)(=O)C1(F)F` (stereo not shown) [Compound 460] is more than 1000 nM.
For the compound `N#Cc1cc(F)cc(Oc2ccc3c(c2C(F)F)C(N)C(F)(F)S3(=O)=O)c1` (stereo not shown) [Compound 387], the IC50 was in the range of 50 to 249 nM.
Regarding `NC(=O)C1CCc2c(OCC(F)F)ccc(C(=O)O)c21` (stereo not shown) [Compound 693], the IC50 was more than 1000 nM.
Same read-out and setting: the figure for `CC(Oc1ccc(S(=O)(=O)C(F)(F)F)c2c1CC(F)(F)C2O)C(N)=O` (stereo not shown) [Compound 649] is more than 1000 nM.
For `COC(=O)C(C)Oc1ccc(S(=O)(=O)C(F)(F)F)c2c1CC(F)(F)C2O` (stereo not shown) [Compound 648], the IC50 fell in the range of 250 to 1000 nM.
Same read-out and setting: the figure for `COc1cncc(Oc2ccc3c(c2Br)[C@@H](O)C(F)(F)S3(=O)=O)c1` [Compound 429] is more than 1000 nM; for `N#Cc1cc(F)cc(Oc2ccc(S(=O)(=O)C(F)(F)F)c3c2CC(F)C3N)c1` (stereo not shown) [Compound 268] it is more than 1000 nM.
Same read-out and setting: with `O=C1c2c(S(=O)(=O)C(F)F)ccc(Oc3ccc(F)c(Br)c3)c2CC1(F)F` [Compound 193] the figure was 250 to 1000 nM; with `CCCOc1ccc(S(=O)(=O)C(F)(F)F)c2c1CCC2O` (stereo not shown) [Compound 583], more than 1000 nM; with `NS(=O)(=O)c1ccc(Oc2cc(F)cc(F)c2)c2c1C(O)CC2` (stereo not shown) [Compound 257], more than 1000 nM.
On the same count and under the same terms, with `O=S(=O)(c1ccc(C(O)CO)c2c1[C@H](O)C(F)(F)C2)C(F)(F)F` (stereo partly shown) [Compound 533] the figure was more than 1000 nM; with `OC1c2c(Br)ccc(OC(F)(F)F)c2CC1(F)F` (stereo not shown) [Compound 653], more than 1000 nM.
On to `O=S(=O)(c1ccc(OC2CCNCC2)c2c1C(O)CC2)C(F)(F)F` (stereo not shown) [Compound 606], for which the IC50 was more than 1000 nM.
On the same count and under the same terms, the figure for `Cc1c(S(C)(=O)=O)ccc(Oc2cc(F)cc(C#N)c2)c1C#N` [Compound 51] is more than 1000 nM.
On to `O=C1Cc2ccc(-c3ccc(S(=O)(=O)C(F)(F)F)c4c3CC(F)(F)[C@H]4O)cc2N1` [Compound 567], for which the IC50 is more than 1000 nM.
Still for that read-out and setting: with `O=S(=O)(c1ccc(CC2CCCCC2)c2c1C(O)CC2)C(F)(F)F` (stereo not shown) [Compound 508] the figure was more than 1000 nM; with `O[C@H]1c2c(OCC(F)F)ccc(C(F)(F)F)c2[C@@H](F)C1(F)F` [Compound 689], more than 1000 nM.
Still for that read-out and setting: the figure for `O[C@H]1c2c(OCC(F)F)ccc(C(F)(F)F)c2[C@H](F)C1(F)F` [Compound 690] is more than 1000 nM; for `CN1CCCC(Oc2ccc(S(=O)(=O)C(F)(F)F)c3c2CC(F)(F)C3O)C1` (stereo not shown) [Compound 634] it is more than 1000 nM.

What is called IC50 is the concentration that gives 50% inhibition.
